Assay [1] deals with ACE. To be noted: read-out: IC50 (blood pressure lowering peptide, ACE), cited from earlier work. From the text: There were various peptides derived from food that are recognized for their ability to inhibit ACE activity, potentially leading to a reduction in blood pressure levels in vivo ([6]).
Assay [2] addresses T1, ACE (Oryctolagus cuniculus, UniProt P12822).
T1 construct: ACE (≥2.0 U/mg, rabbit lung) was purchased; purchased Shanghai Yuanye Biotechnology Co., Ltd. (Shanghai, China); host or cells: rabbit lung (tissue-derived)
T1 sequence (P12822 34-1310): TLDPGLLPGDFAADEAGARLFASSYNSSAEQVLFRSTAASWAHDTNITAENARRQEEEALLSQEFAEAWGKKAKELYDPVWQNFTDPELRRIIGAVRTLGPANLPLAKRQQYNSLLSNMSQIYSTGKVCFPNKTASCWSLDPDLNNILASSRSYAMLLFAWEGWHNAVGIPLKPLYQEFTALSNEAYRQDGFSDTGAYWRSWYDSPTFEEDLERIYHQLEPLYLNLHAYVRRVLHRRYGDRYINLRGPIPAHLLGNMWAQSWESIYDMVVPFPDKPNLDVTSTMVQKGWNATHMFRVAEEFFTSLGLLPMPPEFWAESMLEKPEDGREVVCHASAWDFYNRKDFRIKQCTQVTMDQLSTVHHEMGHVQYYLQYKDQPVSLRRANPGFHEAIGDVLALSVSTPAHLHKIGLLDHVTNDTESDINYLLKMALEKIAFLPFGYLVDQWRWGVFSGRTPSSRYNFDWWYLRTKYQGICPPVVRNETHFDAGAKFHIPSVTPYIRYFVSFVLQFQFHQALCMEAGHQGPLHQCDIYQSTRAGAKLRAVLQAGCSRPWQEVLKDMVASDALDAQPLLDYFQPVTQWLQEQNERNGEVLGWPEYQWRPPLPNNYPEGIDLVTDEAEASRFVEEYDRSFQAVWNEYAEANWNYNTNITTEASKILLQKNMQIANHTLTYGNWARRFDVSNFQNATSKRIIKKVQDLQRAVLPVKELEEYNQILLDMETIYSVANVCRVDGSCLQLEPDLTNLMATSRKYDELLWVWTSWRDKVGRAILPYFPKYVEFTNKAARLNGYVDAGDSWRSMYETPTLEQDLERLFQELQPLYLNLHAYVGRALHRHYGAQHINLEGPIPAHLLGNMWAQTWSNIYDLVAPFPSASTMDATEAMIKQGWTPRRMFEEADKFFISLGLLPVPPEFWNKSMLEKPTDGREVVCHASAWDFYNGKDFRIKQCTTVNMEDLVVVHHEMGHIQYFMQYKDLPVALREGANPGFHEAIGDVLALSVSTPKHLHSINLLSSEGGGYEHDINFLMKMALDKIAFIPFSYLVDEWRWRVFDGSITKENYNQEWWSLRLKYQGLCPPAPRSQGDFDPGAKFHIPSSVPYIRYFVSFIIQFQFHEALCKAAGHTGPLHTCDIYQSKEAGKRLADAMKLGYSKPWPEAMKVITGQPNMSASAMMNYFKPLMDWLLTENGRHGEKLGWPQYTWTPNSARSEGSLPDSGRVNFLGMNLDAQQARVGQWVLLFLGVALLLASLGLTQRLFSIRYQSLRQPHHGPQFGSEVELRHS
The assay is described as follows: ACE inhibition kinetics (Lineweaver-Burk plots). It is filed as biochemical, rabbit. To be noted: GPPGPPGL 0–100 μM, HHL 2 to 5 mM. Here is the method: The ACE inhibition kinetics of the chosen peptides were determined using the method of previous research ([20]), using Lineweaver–Burk plots. The measurement of ACE activity was conducted at different concentrations of peptides, and HHL concentrations ranging from 2 to 5 mM were included. The Michaelis–Menten kinetic equation was used to compute the Michaelis–Menten constant (Km) and maximum reaction rate (Vmax) using data obtained from the Lineweaver–Burk plots.

For assay [3] the following is noted: from conger eel (Conger myriaster); read-out: IC50 (anti-oxidative effects); cited from earlier work. The source says:
Anguilla japonica, also known as eel, is a type of aquatic food that contains high levels of protein, fat, vitamin A, vitamin E, and other nutrients ([11]). It is particularly abundant in collagen. Eel processing is mainly based on grilled eel, most of which is exported abroad. During the eel processing of eels, various by-products such as fish heads and bones are generated. These by-products are mainly used in the production of animal feed or discarded. Eel bones have approximately 13.25% of protein, 19.18% of lipid, 5.63% of ash, and 56.96% of moisture content ([12]). Some bioactive peptides ...

Like-named read-outs stand apart in the source and are kept apart here. Ends that are not written are not given here.

A word on the IC50: it is the concentration that inhibits the measured activity by half. Turning to “Ile-Pro-Ile-Lys [literature peptide from Euphausia superba]”, the IC50 in assay [1] (from Euphausia superba) is 57.4 µM.

Regarding GPPGPPGL [GPPGPPGL], in assay [2], the “Km with increasing peptide level” value is given as “increase”.

“LGLNGDDVN [literature anti-oxidative peptide from conger eel (Conger myriaster)]”: in assay [3], the IC50 was 78.5 µM.

With “Trp-Pro-Met-Gly-Phe [literature peptide from Cyclina sinensis]”, in assay [1] (from Cyclina sinensis), the IC50 was 789 µM.

Consider “Gln-Val-Glu-Tyr [literature peptide from Gracilariopsis lemaneiformis]”, for which the half-maximal inhibitory concentration (IC50) in assay [1] (from Gracilariopsis lemaneiformis) was 474 µM.

The values above are taken from PMC11655196, “Angiotensin-I-converting enzyme inhibitory peptides from eel (Anguilla japonica) bone collagen: preparation, identification, molecular docking, and protective function on HUVECs” (Frontiers in Nutrition, 2024).
